Assay results published in patent US11021507B2, “Myricetin derivative and preparing method thereof, and application of same for treating colitis, preventing and treating colitis tumorigenesis, and treating colorectal cancer” (MARINE BIOMEDICAL RESEARCH INSTITUTE OF QINGDAO CO., LTD., priority 2016, dated 2021).
≈ marks a conversion by molar mass, not a printed value. Values belong to the molecule of their own block, whether it stands above or below them.

Legend:
[1] = tested on: dextran sulfate sodium (DSS)-induced chronic colitis in mice; test: DSS-induced chronic colitis model in mice; type: in vivo, C57BL/6 mice; settings: for Diarrhea (general symptoms) during drug administration / Number of mice with no obvious diarrhea: 100 mg/kg daily, six mice per group; for Diarrhea (general symptoms) during drug administration: 18 days; for Grading scores for chronic inflammation of colon: number of mice colons with score + / Grading scores for chronic inflammation of colon: number of mice colons with score ++ / Grading scores for chronic inflammation of colon: number of mice colons with score 0: 3 mice examined per group, HE staining; for Grading scores for chronic inflammation of colon: number of mice colons with score +: + = slight inflammatory cell infiltration; for Grading scores for chronic inflammation of colon: number of mice colons with score ++: ++ = moderate inflammatory cell infiltration; for Grading scores for chronic inflammation of colon: number of mice colons with score 0: score 0 = no obvious inflammatory cell infiltration; for Colon length compared with model group / Body weight compared with model group: P<0.05; for Body weight compared with model group: FIG. 11
Source text: Determination of the therapeutic effects of myricetin derivative M5, M6 and M7 on dextran sulfate sodium (DSS)-induced chronic colitis in mice
1. Compounds tested and control drugs: myricetin derivative M5, M6 and M7, positive control drug-sulfasalazine (SASP, from Sigma); control drug-myricetin;
Experimental animals: C57BL/6 mice, 20 to 22 g, both male and female, SPF grade provided by Charles River Laboratories, Beijing.
2. DSS-induced chronic colitis model in mice: 36 C57BL/6 mice were randomly divided into six groups, with six mice in each group. DSS (0.5 g) was weighed and dissolved in 50 ml of purified water, for 6 mice to drink in one day. The DSS water was made freshly and was provided at fixed time on a daily basis for 7 days successively, which was then replaced by freshly-made purified drinking water for the next successive 14 days. The same procedure was repeated successively for 3 times. Each group of mice was given the same treatment for the preparation of chronic colitis model. 3. Drug preparation method: 3.1 Solvent control group: 0.5 mL of DMSO was added to 10 mL of 0.5% CMC-Na. 3.2 Myricetin derivative M5 and M6 tested: 100 mg of M5 and M6 each was weighed and dissolved in 0.5 ml of DMSO, and diluted to 10 mL with 0.5% CMC-Na. 3.3 Myricetin derivative M7 tested: 100 mg of M7 was weighed and dissolved in 10 mL of 5% sodium bicarbonate injection. 3.4 Myricetin control: 100 mg of myricetin was weighed and dissolved in 10 mL of 0.5% CMC-Na. 3.5 Sulfasalazine (SASP): 100 mg of SASP was weighed and dissolved in 10 mL of saline. 4. Administration method: the body weight of mice was weighed daily, and drugs were administered 0.01 ml/g (100 mg/kg) consecutively for 18 days. 5. Animal observation and treatment method: body weight, diet, diarrhea (or bloody stools) etc. were observed daily. At the end of the experiment, mice were sacrificed for dissection. The colon and small intestine were dissected out for visual observation and pathological analysis. Pathological examination methods and evaluation criteria: the colons of each group were fixed with 10% formalin followed by routine paraffin embedding, sectioning and HE staining. The degree of colonic inflammation in each group was evaluated under microscope. According to the degree of inflammatory cell infiltration in colonic lamina propria, the following grading criteria were established: level 0, no obvious inflammatory cell infiltration; +(level 1), slight inflammatory cell infiltration; ++(level 2), moderate inflammatory cell infiltration; +++(level 3), severe inflammatory cell infiltration and may be accompanied by necrosis or loss of mucosal cells.
Determination of Therapeutic Effects of Myricetin Derivative M13 and M14 on DSS-Induced Chronic Colitis in Mice
See Example 8 for the experimental method.

[2] = tested on: mouse peritoneal macrophage RAW264.7; test: Cytotoxicity / cell proliferation in RAW264.7 macrophages; type: cell-based; settings: incubated 24 hours; dose increased to 20 μM
Source text: Therefore, this series of compounds may be considered suitable for drug development for treating chronic colitis and inflammatory bowel disease.

[3] = Water solubility test (equilibrium solubility in pure water, LC/MS); type: physicochemical; settings: 37° C.; for solubility at 24 h: ultrapure water, thermodynamic from solid
Procedure: Water solubility test for myricetin derivative M5, M6 and M10
Instrument: Waters Alliance e2695 LC/MS; chromatographic column: Waters×Bridge C18 4.6×150 mm.
Appropriate amount of said myricetin derivative was weighed and dissolved in methanol to prepare a solution of 1 mg/ml respectively, which was diluted with methanol to different concentrations of working solution as standard samples for testing.
2. 1 mL of ultrapure water was added into a 1.5 ml transparent EP tube. Appropriate amount of said myricetin derivative was each added into a transparent EP tube, followed by vortex mixation and ultrasonication till the drug was no longer dissolved (the solution appeared cloudy or had suspended particles). The mixture was then placed in an incubating oscillator for shaking at the temperature of (37±1) ° C., 100 r/min, for 24 hours, to achieve a sufficient solubility balance. 24 hours later, the saturated solution was taken out for centrifugation at 3000 r/min for 15 min. The supernatant was immediately filtered through a 0.45 μm microporous membrane, and the initial part of the filtrate was discarded. Samples were added for chromatography. The peak area was measured and the equilibrium solubility of each compound in pure water was calculated using a standard curve.

[4] = tested on: azomethane (AOM)/dextran sulfate sodium (DSS)-induced chronic ulcerative colitis and inflammation-associated tumorigenesis; test: AOM/DSS-induced chronic ulcerative colitis and inflammation-associated tumorigenesis in mice; type: in vivo, C57BL/6 mice; settings: 100 mg/kg aspirin or myricetin; M10 25-100 mg/kg; 12 weeks; FIG. 8
Source text: Determination of therapeutic effect of myricetin derivative M10 on azomethane (AOM)/dextran sulfate sodium (DSS)-induced chronic ulcerative colitis and inflammation-associated tumorigenesis.
Compound tested and control drugs: myricetin derivative M10, control compound myricetin, aspirin (Sigma).
Experimental animals: C57BL/6 mice, 20 to 22 g, both male and female, SPF grade provided by Beijing Vital Lihua Experimental Animal Company, and mice were fed with standard animal feed.
Animal models of AOM/DSS-induced chronic colitis and inflammation-associated tumorigenesis: 48 C57BL/6 mice were randomly divided into six groups with eight mice in each group, including model group, for which 0.5% CMC-Na was administered intragastrically every day; aspirin group, for which 100 mg/kg of aspirin (dissolved in 0.5% CMC-Na) was administered intragastrically; myricetin control group, for which 100 mg/kg of myricetin (dissolved in 0.5% CMCNa) was administered intragastrically; M10 high dose group, for which 100 mg/kg of M10 (dissolved in pure water) was administered intragastrically; M10 medium dose group, for which 50 mg/kg of M10 (dissolved in pure water) was administered intragastrically; M10 low dose group, for which 25 mg/kg of M10 (dissolved in pure water) was administered intragastrically.
Preparation of chronic ulcerative colitis mice model: said groups of mice were intraperitoneally injected with 10 mg/kg of azoxymethane (AOM) on day one. Purified drinking water containing 2% dextran sulfate sodium (DSS) was freshly made and provided on day one and on the next six consecutive days, the replaced by purified drinking water for the next seven consecutive days. The above procedure was then repeated for 3 more times.
M10-treated group: 200 mg of M10 was weighed and dissolved in 10 mL of 0.5% CMC-Na solution (20 mg/mL), and consecutively diluted 2 times and 5 times for future use. 0.2 mL of each prepared solutions was given intragastrically to mice (the body weight was assumed as 20 g per mouse), namely divided into high, medium or small dose groups. Myricetin control group: 200 mg of myricetin was weighed and dissolved in 10 mL of 0.5% CMC-Na. Aspirin-treated group: 200 mg of aspirin was weighed and dissolved in 10 mL of 0.5% CMC-Na. Administration method: The body weight of mice was measured daily, and drugs were administered at 0.01 mL/g (100 mg/kg) per day for 12 consecutive weeks. 4. Animal observation and treatment methods: weight, diet, diarrhea (or bloody stools) etc. were observed daily.
At the end of the experiment, mice were sacrificed. The colon and small intestine were dissected out for visual observation and pathological analysis. Pathological examination methods and evaluation criteria: the mice colons of each group were fixed with 10% formalin, followed by routine paraffin embedding, sectioning and HE staining. The developmental degree of colonic inflammation and colon cancer in each group of mice was evaluated under microscopic observation.

[5] = 100 mg/kg for 18 days, end of experiment, FIG. 2
[6] = Example 17, method of Example 8
[7] = Example 17, method of Example 8, FIG. 12

- Solubility (in words) ([3]; 24 h, per Table 2): very low
- solubility at 24 h [3]: < 0.1 µg/mL
SMILES: CC(=O)OC[C@H]1O[C@@H](O[C@H]2[C@H](OC(C)=O)[C@@H](OC(C)=O)[C@H](Oc3c(-c4cc(OCc5ccccc5)c(OCc5ccccc5)c(OCc5ccccc5)c4)oc4cc(OCc5ccccc5)cc(O)c4c3=O)O[C@@H]2COC(C)=O)[C@H](OC(C)=O)[C@@H](OC(C)=O)[C@H]1OC(C)=O [M5]
- Diarrhea (general symptoms) during drug administration [1]: no significant reduction in diarrhea
- Grading scores for chronic inflammation of colon: number of mice colons with score + ([1]; 100 mg/kg for 18 days): 1
- Grading scores for chronic inflammation of colon: number of mice colons with score ++ ([1]; 100 mg/kg for 18 days): 2
- Inhibitory effect on cell proliferation (cytotoxic effect) [2]: no significant inhibitory effect

- solubility at 24 h [3]: 1.4 µg/mL (≈ 1.49 µM)
SMILES: CC(=O)OC[C@H]1O[C@@H](O[C@H]2[C@H](OC(C)=O)[C@@H](OC(C)=O)[C@H](Oc3c(-c4cc(O)c(O)c(O)c4)oc4cc(O)cc(O)c4c3=O)O[C@@H]2COC(C)=O)[C@H](OC(C)=O)[C@@H](OC(C)=O)[C@H]1OC(C)=O [M6]
- Diarrhea (general symptoms) during drug administration [1]: slight reduction in diarrhea
- Number of mice with no obvious diarrhea [1]: 1-2 mice
- Grading scores for chronic inflammation of colon: number of mice colons with score + ([1]; 100 mg/kg for 18 days): 2
- Grading scores for chronic inflammation of colon: number of mice colons with score 0 ([1]; 100 mg/kg for 18 days): 1
- Colon length compared with model group [1, 5]: significantly longer
- Inhibitory effect on cell proliferation (cytotoxic effect) [2]: no significant inhibitory effect

SMILES: O=c1c(O[C@@H]2O[C@H](CO)[C@@H](O[C@@H]3O[C@H](CO)[C@H](O)[C@H](O)[C@H]3O)[C@H](O)[C@H]2O)c(-c2cc(O)c(O)c(O)c2)oc2cc(O)cc(O)c12 [M7]
- Diarrhea (general symptoms) during drug administration [1]: significant reduction in diarrhea
- Number of mice with no obvious diarrhea [1]: 4 mice
- Grading scores for chronic inflammation of colon: number of mice colons with score 0 ([1]; 100 mg/kg for 18 days): 3
- Degree of chronic colonic inflammation (pathological examination) ([1]; 100 mg/kg for 18 days, FIG. 3 and Table 1): significantly alleviated
- Colon length compared with model group [1, 5]: significantly longer
- Inhibitory effect on cell proliferation (cytotoxic effect) [2]: no significant inhibitory effect

SMILES: O=c1c(O[C@@H]2O[C@H](CO[C@@H]3O[C@H](CO)[C@@H](O)[C@H]3O)[C@H](O)[C@H](O)[C@H]2O)c(-c2cc(O)c(O)c(O)c2)oc2cc(O)cc(O)c12 [M13]
- Body weight compared with model group [1, 6]: significantly increased
- Colon length compared with model group [1, 7]: significantly increased

SMILES: O=c1c(O[C@@H]2O[C@H](CO[C@@H]3O[C@H](CO)[C@@H](O)[C@H](O)[C@@H]3O)[C@H](O)[C@H](O)[C@H]2O)c(-c2cc(O)c(O)c(O)c2)oc2cc(O)cc(O)c12 [M14]
- Body weight compared with model group [1, 6]: significantly increased
- Colon length compared with model group [1, 7]: significantly increased

SMILES: O=C(O)c1cc(/N=N/c2ccc(S(=O)(=O)Nc3ccccn3)cc2)ccc1O [SASP, sulfasalazine, reference compound]
- Diarrhea (general symptoms) during drug administration [1]: slight reduction in diarrhea
- Grading scores for chronic inflammation of colon: number of mice colons with score + ([1]; 100 mg/kg for 18 days): 1
- Grading scores for chronic inflammation of colon: number of mice colons with score ++ ([1]; 100 mg/kg for 18 days): 2

SMILES: CC(=O)Oc1ccccc1C(=O)O [aspirin, reference compound]
- Pathological analysis of colon tissue (colon cancer) [4]: alleviated to some extent
